Some test systems named below: SK-OV-3; NCI-H522; OVCAR-3; HOP-92; LOX IMVI; A549; UO-31; SN12C; 786-0; LXFL 529; SF-295; OVCAR-4; COLO 205; NCI-H23; CAKI-1; HCT-116; PC-3; NCI/ADR-RES; DU-145; MDA-N.
What all share (test): NCI anticancer screen, dose series, 48 h

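A five-concentration, 48-hour dose response in 96-well plates underlies each endpoint, interpolated linearly between surrounding concentrations. GI50 = concentration required for 50% inhibition of growth.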 The source made the active and inactive calls. No stated cut-off is given here; in the data, active = GI50 up to about 1.1 µM and inactive = higher. Where only a bound is given, the exact number is not on record here.

Regarding `COc1ccccc1NC(=O)C1=C(C)NC(C)=C(C(=O)Nc2ccccc2OC)C1c1ccc(N(C)C)cc1`, the GI50 in the assay on SK-OV-3 was 38.7 µM (inactive); in the assay on NCI-H522 it was 17.6 µM (inactive); in the assay with OVCAR-3, 19.1 µM (inactive); in the assay with HOP-92, 6.52 µM (inactive); in the assay on LOX IMVI, 15.4 µM (inactive); with A549, 42.6 µM (inactive). Moreover, the GI50 with UO-31 was 36 µM (inactive); in the assay with SN12C it was 26.9 µM (inactive); in the assay with 786-0, 33.8 µM (inactive); in the assay on LXFL 529 it was 25.4 µM (inactive); with SF-295, 38 µM (inactive); with OVCAR-4, 29.6 µM (inactive). Besides, the GI50 with COLO 205 was 31 µM (inactive); with NCI-H23, 21.3 µM (inactive); in the assay on CAKI-1, 23.2 µM (inactive); in the assay on HCT-116, 25.4 µM (inactive).

`O=C1[C@H]2ON(c3ccccc3)C(c3ccc([N+](=O)[O-])cc3)[C@H]2C(=O)N1c1ccc(Cc2ccc(N3C(=O)[C@@H]4ON(c5ccccc5)C(c5ccc([N+](=O)[O-])cc5)[C@@H]4C3=O)cc2)cc1` (stereo partly specified): the GI50 in the assay with SK-OV-3 was > 100 µM (inactive); in the assay on NCI-H522 it was > 100 µM (inactive); in the assay with OVCAR-3 it was > 100 µM (inactive); in the assay with HOP-92, 52.4 µM (inactive); in the assay on LOX IMVI, > 100 µM (inactive); with A549, > 100 µM (inactive). The GI50 in the assay on UO-31 is > 100 µM (inactive); in the assay on SN12C, > 100 µM (inactive); with 786-0, > 100 µM (inactive); with LXFL 529 it was 74.6 µM (inactive); in the assay with SF-295 it was > 100 µM (inactive); in the assay with OVCAR-4, > 100 µM (inactive). For the same compound, the GI50 with COLO 205 was 58.7 µM (inactive); in the assay on NCI-H23 it was > 100 µM (inactive); with CAKI-1 it was 26.1 µM (inactive); in the assay on HCT-116, > 100 µM (inactive).

For the compound `Cc1ccccc1NC(=O)c1c(C)oc2c1C(=O)c1ccccc1C2=O`, the GI50 with SK-OV-3 was > 100 µM (inactive); with NCI-H522 it was 16.5 µM (inactive); in the assay on OVCAR-3 it was 14.4 µM (inactive); in the assay with HOP-92, 20.3 µM (inactive); in the assay with LOX IMVI, 16 µM (inactive); in the assay on A549, 32.7 µM (inactive). In addition, the GI50 with UO-31 was > 85.3 µM (inactive); with SN12C, > 53.7 µM (inactive); in the assay with 786-0, 27 µM (inactive); in the assay on LXFL 529, 21.5 µM (inactive); with SF-295, 40.3 µM (inactive); in the assay with OVCAR-4, 2.09 µM (inactive). The GI50 in the assay on COLO 205 was 53.3 µM (inactive); with NCI-H23, 29.7 µM (inactive); in the assay on CAKI-1, > 80.7 µM (inactive); with HCT-116, 32.1 µM (inactive).

As to `COC(=O)C1=CO[C@@H](OC2CC(CO)C(O)C(O)C2O)[C@@H]2[C@@H](C)[C@@H](OC(=O)/C=C/c3ccccc3)[C@@H](O)[C@H]12.COC(=O)C1=CO[C@@H](OC2CC(CO)C(O)C(O)C2O)[C@@H]2[C@@H](C)[C@@H](OC(=O)c3ccccc3)[C@@H](O)[C@H]12` (stereo partly specified), the GI50 in the assay with SK-OV-3, in the assay with NCI-H522, in the assay on OVCAR-3, in the assay with HOP-92, with LOX IMVI and in the assay with A549 was > 100 µM (inactive) each time. In addition, the GI50 with UO-31, in the assay with SN12C, with 786-0, with LXFL 529, in the assay with SF-295 and in the assay with OVCAR-4 was > 100 µM (inactive) in each case. The GI50 in the assay on COLO 205, in the assay on NCI-H23, in the assay with CAKI-1 and with HCT-116 was > 100 µM (inactive) throughout.

Turning to `COc1c(O)c(O)cc2c1-c1ccc(OC)c(=O)cc1C(NC(C)=O)CC2` (stereo unspecified), the GI50 in the assay with SK-OV-3 was 5.35 µM (inactive); in the assay on NCI-H522, 1.84 µM (inactive); in the assay on OVCAR-3 it was 2.21 µM (inactive); in the assay with HOP-92 it was 2.7 µM (inactive); in the assay on PC-3, 6.62 µM (inactive); in the assay on LOX IMVI it was 4.84 µM (inactive). Further, the GI50 was 29 µM (inactive) in the assay on NCI/ADR-RES; 37.4 µM (inactive) in the assay with A549; 56.1 µM (inactive) with UO-31; 8.95 µM (inactive) in the assay on SN12C; 12.3 µM (inactive) with DU-145; 8.04 µM (inactive) in the assay on 786-0. The GI50 was 3.86 µM (inactive) with LXFL 529; 5.13 µM (inactive) with SF-295; 1.69 µM (inactive) with MDA-N; 22.6 µM (inactive) in the assay on OVCAR-4; 3.13 µM (inactive) in the assay with COLO 205; 3.95 µM (inactive) with NCI-H23. Moreover, the figures for the GI50 in the assay with CAKI-1 and in the assay on HCT-116 were 24.2 µM (inactive) and 3.94 µM (inactive), respectively.

For the compound `CCNCC(=O)O[C@]1(CC)C(=O)OCc2c1cc1n(c2=O)Cc2cc3ccccc3nc2-1`, the GI50 in the assay with SK-OV-3 is 0.258 µM (active); in the assay with NCI-H522, 0.221 µM (active); with OVCAR-3, 2.07 µM (inactive); with HOP-92, 1.16 µM (inactive); in the assay with PC-3, 0.741 µM (active); in the assay with LOX IMVI it was 0.0893 µM (active). Also, the GI50 is 0.114 µM (active) in the assay with NCI/ADR-RES; 0.157 µM (active) in the assay on A549; 0.158 µM (active) with UO-31; 0.0619 µM (active) with SN12C; 0.0465 µM (active) in the assay on DU-145; 0.0455 µM (active) in the assay with 786-0. Further, the GI50 in the assay with LXFL 529 is 4.73 µM (inactive); in the assay on SF-295, 0.0586 µM (active); with MDA-N, 1.36 µM (inactive); with OVCAR-4, 2.25 µM (inactive); in the assay with COLO 205 it was 1.69 µM (inactive); in the assay with NCI-H23, 0.0849 µM (active). The values for the GI50 with CAKI-1 and in the assay with HCT-116 were 0.0559 µM (active) and 0.342 µM (active), respectively.

For the compound `O=C1C=C(Nc2ccc(S(=O)(=O)Nc3ncccn3)cc2)c2ccccc2C1=O`, the GI50 with SK-OV-3 was 26.7 µM (inactive); in the assay on NCI-H522, 17.8 µM (inactive); with OVCAR-3, 14.6 µM (inactive); with HOP-92 it was 33 µM (inactive); with LOX IMVI, 15.8 µM (inactive); in the assay with A549, 25.3 µM (inactive). Besides, the GI50 was 24 µM (inactive) in the assay with UO-31; 21.5 µM (inactive) in the assay on SN12C; 19.8 µM (inactive) in the assay with 786-0; 23.2 µM (inactive) with LXFL 529; 20.6 µM (inactive) in the assay on SF-295; 21.8 µM (inactive) in the assay with OVCAR-4. Also, the GI50 with COLO 205 is 22.5 µM (inactive); with NCI-H23, 17.4 µM (inactive); in the assay with CAKI-1, 32.1 µM (inactive); with HCT-116, 18.9 µM (inactive).

Regarding `CCOC(=O)C1=C(OC(OCC)C(C)[Se]c2ccccc2)CCC1` (stereo unspecified), the GI50 in the assay with SK-OV-3 is 94 µM (inactive); in the assay on NCI-H522, 13.1 µM (inactive); in the assay on OVCAR-3, 14.7 µM (inactive); with HOP-92, 24.5 µM (inactive); with LOX IMVI, 7.21 µM (inactive); with A549 it was 49.9 µM (inactive). The GI50 is 24.7 µM (inactive) in the assay on UO-31; 14.6 µM (inactive) with SN12C; 12.5 µM (inactive) with 786-0; 14.3 µM (inactive) in the assay with LXFL 529; 19.8 µM (inactive) in the assay on SF-295; 18 µM (inactive) in the assay with OVCAR-4. Moreover, the GI50 with COLO 205 was 25.1 µM (inactive); in the assay on NCI-H23, 12.4 µM (inactive); with CAKI-1, 51.1 µM (inactive); in the assay with HCT-116 it was 18.9 µM (inactive).

(Values after ChEMBL document CHEMBL1201862, “PubChem BioAssay data set” (2004).)
